This passage reports IC50 results from paper PMC10893060, “Synthesis and Study of the Structure–Activity Relationship of Antiproliferative N-Substituted Isosteviol-Based 1,3-Aminoalcohols” (Pharmaceuticals, 2024).

Broadly, the IC50 is the point on the concentration scale where inhibition reaches its midpoint.

Molecules are shown by their SMILES.

Type in all cases: cell-based
The test system of one test is MDA-MB-231. Briefly: MTT antiproliferative assay, MDA-MB-231. The following applies: Homo sapiens, 72 h, no IC50 calculated when less than 50% inhibition at 10 μM. An excerpt: (§1) The antiproliferative activities of the prepared diterpene analogues were studied using an MTT assay on a panel of human adherent cancer lines, including cells from cervical (HeLa), breast (MDA-MB-231, MCF-7), and ovary cancers (A2780), as given in Figure 1 and Table S1 in the Supplementary Materials. A non-malignant fibroblast cell line (NIH/3T3) was also utilised to obtain preliminary information on the cancer selectivity of the tested compounds. Based on the obtained activities, some conclusions could be drawn regarding the structure–activity relationships (SARs). Since neither the key intermediate benzyl ester of hydroxylaldehyde 4 nor the N-Boc protected aminoalcohols (6, 7, 11, 12) or even compound 8 with a free carboxylic function exerted remarkable antiproliferative effects (except for 12 against A2780 ovarian cancer cells), we could conclude that the simultaneous presence of the ester function and the basic secondary amino function were essential for the inhibition of cell growth. […] All active molecules inhibited considerably the proliferation of non-malignant cells, which meant that most currently presented agents were not optimal for further investigations of their anticancer properties.
(§2) The growth-inhibitory effects of the isosteviol-based 1,3-aminoalcohols were determined by a standard MTT (3-(4,5-dimethylthiazol-2-yl)-2,5-diphenyltetrazolium bromide) assay on a panel containing five cell lines, including Hela (cervical cancer), MDA-MB-231 and MCF-7 (breast cancers), and A2780 ovarian cancer cells. All cell lines were purchased from the European Collection of Cell Cultures (Salisbury, UK). The cells were maintained in a minimal essential medium supplemented with 10% foetal bovine serum, 1% non-essential amino acids, and 1% penicillin–streptomycin at 37 °C in a humidified atmosphere containing 5% CO2. All media and supplements were obtained from Lonza Group Ltd. (Basel, Switzerland). Cancer cells were seeded into 96-well plates (5000 cells/well); after overnight incubation, the test compound was added in two different concentrations (10 µM and 30 µM) and incubated for another 72 h under cell-culturing conditions. In the next step, 20 μL of 5 mg/mL of an MTT solution was added to each well and incubated for a further 4 h. The medium was removed and the precipitated formazan crystals were dissolved in DMSO after 60 min of shaking at 37 °C. As a final step, the absorbance was measured at 545 nm by using a microplate reader. Untreated cells were included as controls. […] Two independent experiments were performed with five wells for each condition. Calculations were performed using the GraphPad Prism 10.0 software (GraphPad Software Inc., San Diego, CA, USA).

The test system of another test is MCF-7. Briefly: MTT antiproliferative assay, MCF-7. Particulars: Homo sapiens, MCF7, 72 h, no IC50 calculated when less than 50% inhibition at 10 μM.
Excerpt: as §1, §2

In the next test the test system is A2780. Briefly: MTT antiproliferative assay, A2780. Particulars: Homo sapiens, 72 h, no IC50 calculated when less than 50% inhibition at 10 μM.
Excerpt: as §1, §2

The next test has as its system NIH/3T3. Nature of the test: MTT assay on non-malignant fibroblasts. Particulars: Mus musculus, NIH3T3, 72 h, no IC50 calculated when less than 50% inhibition at 10 μM.
Excerpt: as §1, §2

The next test relates to HeLa. Briefly: MTT antiproliferative assay, HeLa. Particulars: Homo sapiens, 72 h, no IC50 calculated when less than 50% inhibition at 10 μM.
Excerpt: as §1, §2

In the case of `C[C@]12CCC3[C@](CC[C@@H]4[C@](C)(C(=O)OCc5ccccc5)CCC[C@@]34C)(C1)[C@H](C=O)[C@H]2O` (stereo partly drawn) [Compound 4, (4R,4aS,6aS,7S,8R,9S,11bS)-Benzyl 7-formyl-8-hydroxy-4,9,11b-trimethyltetradecahydro-6a,9-methanocyclohepta[a]naphthalene-4-carboxylate], the IC50 in the test on MDA-MB-231, in the test with MCF-7, in the test on A2780, in the test on NIH/3T3 and with HeLa was greater than 10 µM throughout.
Turning to `C[C@]12CCC3[C@](CC[C@@H]4[C@](C)(C(=O)OCc5ccccc5)CCC[C@@]34C)(C1)[C@H](CNCc1ccc(F)cc1)[C@H]2O` (stereo partly drawn) [Compound 5, (4R,4aS,6aS,7R,8R,9S,11bS)-Benzyl 7-(((4-fluorobenzyl)amino)methyl)-8-hydroxy-4,9,11b-trimethyltetradecahydro-6a,9-methanocyclohepta[a]naphthalene-4-carboxylate], the IC50 in the test on MDA-MB-231 is 5.98 µM; in the test on MCF-7, 4.29 µM; in the test with A2780 it was 4.57 µM; in the test on NIH/3T3, 4.27 µM; with HeLa, 4.17 µM.
`CC(C)(C)OC(=O)N(Cc1ccc(F)cc1)C[C@@H]1[C@@H](O)[C@@]2(C)CCC3[C@]1(CC[C@@H]1[C@](C)(C(=O)OCc4ccccc4)CCC[C@@]31C)C2` (stereo partly drawn) [Compound 6, (4R,4aS,6aS,7R,8R,9S,11bS)-Benzyl 7-(((tert-butoxycarbonyl)(4-fluorobenzyl)amino)methyl)-8-hydroxy-4,9,11b-trimethyltetradecahydro-6a,9-methanocyclohepta[a]naphthalene-4-carboxylate]: the IC50 in the test with MDA-MB-231, in the test with MCF-7, in the test with A2780, in the test on NIH/3T3 and in the test on HeLa was greater than 10 µM in each case.
With `CC(C)(C)OC(=O)N(Cc1ccc(F)cc1)C[C@@H]1[C@@H](O)[C@@]2(C)CCC3[C@]1(CC[C@@H]1[C@](C)(C(=O)O)CCC[C@@]31C)C2` (stereo partly drawn) [Compound 7, (4R,4aS,6aS,7R,8R,9S,11bS)-7-(((tert-butoxycarbonyl)(4-fluorobenzyl)amino)methyl)-8-hydroxy-4,9,11b-trimethyltetradecahydro-6a,9-methanocyclohepta[a]naphthalene-4-carboxylic Acid], the IC50 with MDA-MB-231, with MCF-7, in the test on A2780, with NIH/3T3 and in the test on HeLa was greater than 10 µM each time.
Regarding `C=CC(=O)OCCCCOC(=O)[C@]1(C)CCC[C@@]2(C)C3CC[C@@]4(C)C[C@]3(CC[C@H]12)[C@H](CN(Cc1ccc(F)cc1)C(=O)OC(C)(C)C)[C@H]4O` (stereo partly drawn) [Compound 11, (4R,4aS,6aS,7R,8R,9S,11bS)-4-(Acryloyloxy)butyl 7-(((tert-butoxycarbonyl)(4-fluorobenzyl)amino)methyl)-8-hydroxy-4,9,11b-trimethyltetradecahydro-6a,9-methanocyclohepta[a]naphthalene-4-carboxylate], the IC50 in the test with MDA-MB-231, in the test on MCF-7, in the test with A2780, in the test with NIH/3T3 and in the test on HeLa was greater than 10 µM in each case.
`C=CC(=O)OCCC(=O)OCCCCOC(=O)[C@]1(C)CCC[C@@]2(C)C3CC[C@@]4(C)C[C@]3(CC[C@H]12)[C@H](CN(Cc1ccc(F)cc1)C(=O)OC(C)(C)C)[C@H]4O` (stereo partly drawn) [Compound 12, (4R,4aS,6aS,7R,8R,9S,11bS)-4-((3-(Acryloyloxy)propanoyl)oxy)butyl 7-(((tert-butoxycarbonyl)(4-fluorobenzyl)amino)methyl)-8-hydroxy-4,9,11b-trimethyltetradecahydro-6a,9-methanocyclohepta[a]naphthalene-4-carboxylate]: the IC50 is greater than 10 µM in the test on MDA-MB-231; greater than 10 µM in the test with MCF-7; 4.78 µM in the test on A2780; greater than 10 µM in the test with NIH/3T3; greater than 10 µM in the test on HeLa.
As to `C[C@@H](NC[C@@H]1[C@@H](O)[C@@]2(C)CCC3[C@]1(CC[C@@H]1[C@](C)(C(=O)OCc4ccccc4)CCC[C@@]31C)C2)c1ccc(F)cc1` (stereo partly drawn) [Compound 15, (4R,4aS,6aS,7R,8R,9S,11bS)-Benzyl 7-((((R)-1-(4-fluorophenyl)ethyl)amino)methyl)-8-hydroxy-4,9,11b-trimethyltetradecahydro-6a,9-methanocyclohepta[a]naphthalene-4-carboxylate], the IC50 in the test on MDA-MB-231 was 4.28 µM; in the test with MCF-7, 4.2 µM; with A2780 it was 3.91 µM; with NIH/3T3 it was 4.8 µM; in the test on HeLa, 4.18 µM.
The matching figures for `CC[C@@H](NC[C@@H]1[C@@H](O)[C@@]2(C)CCC3[C@]1(CC[C@@H]1[C@](C)(C(=O)OCc4ccccc4)CCC[C@@]31C)C2)c1ccccc1` (stereo partly drawn) [Compound 16, (4R,4aS,6aS,7R,8R,9S,11bS)-Benzyl 8-hydroxy-4,9,11b-trimethyl-7-((((R)-1-phenylpropyl)amino)methyl)tetradecahydro-6a,9-methanocyclohepta[a]naphthalene-4-carboxylate]: 4.79 µM, 3.48 µM, 4 µM, 1.37 µM and 3.86 µM.
With `CC[C@H](NC[C@@H]1[C@@H](O)[C@@]2(C)CCC3[C@]1(CC[C@@H]1[C@](C)(C(=O)OCc4ccccc4)CCC[C@@]31C)C2)c1ccccc1` (stereo partly drawn) [Compound 17, (4R,4aS,6aS,7R,8R,9S,11bS)-Benzyl 8-hydroxy-4,9,11b-trimethyl-7-((((S)-1-phenylpropyl)amino)methyl)tetradecahydro-6a,9-methanocyclohepta[a]naphthalene-4-carboxylate], the IC50 was 4.04 µM in the test with MDA-MB-231; 4.74 µM with MCF-7; 3.78 µM with A2780; 1.95 µM with NIH/3T3; 4.45 µM with HeLa.
As for `C[C@@H](NC[C@@H]1[C@@H](O)[C@@]2(C)CCC3[C@]1(CC[C@@H]1[C@](C)(C(=O)OCc4ccccc4)CCC[C@@]31C)C2)c1cccc2ccccc12` (stereo partly drawn) [Compound 18, (4R,4aS,6aS,7R,8R,9S,11bS)-Benzyl 8-hydroxy-4,9,11b-trimethyl-7-((((R)-1-(naphthalen-1-yl)ethyl)amino)methyl)tetradecahydro-6a,9-methanocyclohepta[a]naphthalene-4-carboxylate], the IC50 in the test with MDA-MB-231 was 4.63 µM; in the test with MCF-7 it was 4.85 µM; in the test on A2780 it was 2.89 µM; in the test with NIH/3T3, 4.61 µM; in the test with HeLa, 3.05 µM.
In the same order, the values of `C[C@H](NC[C@@H]1[C@@H](O)[C@@]2(C)CCC3[C@]1(CC[C@@H]1[C@](C)(C(=O)OCc4ccccc4)CCC[C@@]31C)C2)c1cccc2ccccc12` (stereo partly drawn) [Compound 19, (4R,4aS,6aS,7R,8R,9S,11bS)-Benzyl 8-hydroxy-4,9,11b-trimethyl-7-((((S)-1-(naphthalen-1-yl)ethyl)amino)methyl)tetradecahydro-6a,9-methanocyclohepta[a]naphthalene-4-carboxylate] are 7.29 µM, 5.59 µM, 4.41 µM, 5.44 µM and 6.08 µM.
